Values of other authors as cited in patent US9126952B2, “Morpholinylquinazolines” (Merck Patent GmbH, priority 2010, dated 2015).

Experiments:
[1] = tested on: kinases of the PI3K isoenzyme family; settings: cited from earlier work
[2] = biological target: DNA-PK (Homo sapiens (Human), UniProt P78527); settings: ATP-competitive; Hardcastle et al. (2005); cited from earlier work

Structure (SMILES)	inhibition of PI3K isoenzyme family kinases [1]	IC50 [2]
CCN1CCN(CC(=O)Nc2ccc(-c3cccc4c(=O)cc(N5CCOCC5)oc34)c3sc4ccccc4c23)CC1 [KU-0060648]	potently inhibited	–
O=c1cc(N2CCOCC2)oc2c(-c3cccc4c3sc3ccccc34)cccc12 [NU-7441]	–	20 nM
